In PubChem BioAssay (NCI):
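Grown in 96-well plates, cells were treated for 48 hours with each compound at five concentrations. Insufficient inhibition: endpoint recorded as highest concentration tested. At the TGI there is no net growth.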

Experiments:
Assay in all cases: NCI-60 cell line screen, 48 h
SN12C renal = system: SN12C renal
HOP-62 NSCLC = system: HOP-62 NSCLC
SK-OV-3 ovarian = system: SK-OV-3 ovarian
MALME-3M melanoma = system: MALME-3M melanoma
HOP-92 NSCLC = system: HOP-92 NSCLC
TK-10 renal = system: TK-10 renal
KM12 colon = system: KM12 colon
SNB-75 CNS = system: SNB-75 CNS
NCI/ADR-RES ovarian = system: NCI/ADR-RES ovarian
OVCAR-5 ovarian = system: OVCAR-5 ovarian
HCT-116 colon = system: HCT-116 colon
EKVX NSCLC = system: EKVX NSCLC
HS 578T breast = system: HS 578T breast
COLO 205 colon = system: COLO 205 colon
RXF 393 renal = system: RXF 393 renal
IGROV1 ovarian = system: IGROV1 ovarian
NCI-H460 lung = system: NCI-H460 lung
PC-3 prostate = system: PC-3 prostate
SK-MEL-5 melanoma = system: SK-MEL-5 melanoma
HCT-15 colon = system: HCT-15 colon
K-562 leukemia = system: K-562 leukemia
MOLT-4 leukemia = system: MOLT-4 leukemia
LOX IMVI melanoma = system: LOX IMVI melanoma
HT29 colon = system: HT29 colon
M14 melanoma = system: M14 melanoma
NCI-H522 lung = system: NCI-H522 lung
SK-MEL-2 melanoma = system: SK-MEL-2 melanoma
UACC-257 melanoma = system: UACC-257 melanoma
SF-539 CNS = system: SF-539 CNS
SW-620 colon = system: SW-620 colon
U251 CNS = system: U251 CNS
BT-549 breast = system: BT-549 breast
786-0 renal = system: 786-0 renal
SR leukemia = system: SR leukemia
OVCAR-3 ovarian = system: OVCAR-3 ovarian
RPMI-8226 leukemia = system: RPMI-8226 leukemia
NCI-H226 lung = system: NCI-H226 lung
ACHN renal = system: ACHN renal
UO-31 renal = system: UO-31 renal
SK-MEL-28 melanoma = system: SK-MEL-28 melanoma
DU-145 prostate = system: DU-145 prostate
SNB-19 CNS = system: SNB-19 CNS
UACC-62 melanoma = system: UACC-62 melanoma
MDA-MB-231 breast = system: MDA-MB-231 breast
MDA-MB-435 = system: MDA-MB-435
A549 NSCLC = system: A549 NSCLC
NCI-H23 lung = system: NCI-H23 lung
T-47D breast = system: T-47D breast
SF-268 CNS = system: SF-268 CNS
CAKI-1 renal = system: CAKI-1 renal
MDA-N = system: MDA-N
A498 renal = system: A498 renal
MCF7 breast = system: MCF7 breast
SF-295 CNS = system: SF-295 CNS
OVCAR-4 ovarian = system: OVCAR-4 ovarian
OVCAR-8 ovarian = system: OVCAR-8 ovarian
HL-60(TB) leukemia = system: HL-60(TB) leukemia
HCC-2998 colon = system: HCC-2998 colon
CCRF-CEM leukemia = system: CCRF-CEM leukemia

Molecule `O=C(CCN1CCCCC1)c1csc2ccccc12` has a TGI (SN12C renal) of over 100 µM, a TGI (HOP-62 NSCLC) of over 100 µM and a TGI (SK-OV-3 ovarian) of over 100 µM. It also gave a TGI (MALME-3M melanoma) of over 100 µM, a TGI (HOP-92 NSCLC) of over 100 µM and a TGI (TK-10 renal) of over 100 µM. For the same molecule, the TGI (KM12 colon) was over 100 µM, the TGI (SNB-75 CNS) was over 100 µM and the TGI (NCI/ADR-RES ovarian) was over 100 µM. The TGI (OVCAR-5 ovarian) was over 100 µM, the TGI (HCT-116 colon) was over 100 µM and the TGI (EKVX NSCLC) was over 100 µM. The TGI (HS 578T breast) was over 100 µM, the TGI (COLO 205 colon) was over 100 µM and the TGI (RXF 393 renal) was over 100 µM. The TGI (IGROV1 ovarian) was over 100 µM, the TGI (NCI-H460 lung) was over 100 µM and the TGI (PC-3 prostate) was over 100 µM. The TGI (SK-MEL-5 melanoma) was over 100 µM, the TGI (HCT-15 colon) was over 100 µM and the TGI (K-562 leukemia) was over 100 µM. The TGI (MOLT-4 leukemia) was over 100 µM, the TGI (LOX IMVI melanoma) was over 100 µM and the TGI (HT29 colon) was over 100 µM. The TGI (M14 melanoma) was over 100 µM, the TGI (NCI-H522 lung) was over 100 µM and the TGI (SK-MEL-2 melanoma) was over 100 µM. It also gave a TGI (UACC-257 melanoma) of over 100 µM, a TGI (SF-539 CNS) of over 100 µM and a TGI (SW-620 colon) of over 100 µM. The TGI (U251 CNS) was over 100 µM, the TGI (BT-549 breast) was over 100 µM and the TGI (786-0 renal) was over 100 µM. It also gave a TGI (SR leukemia) of over 100 µM, a TGI (OVCAR-3 ovarian) of over 100 µM and a TGI (RPMI-8226 leukemia) of over 100 µM. The TGI (NCI-H226 lung) was over 100 µM, the TGI (ACHN renal) was over 100 µM and the TGI (UO-31 renal) was over 100 µM. The TGI (SK-MEL-28 melanoma) was over 100 µM, the TGI (DU-145 prostate) was over 100 µM and the TGI (SNB-19 CNS) was over 100 µM. For the same molecule, the TGI (UACC-62 melanoma) was over 100 µM, the TGI (MDA-MB-231 breast) was over 100 µM and the TGI (MDA-MB-435) was over 100 µM. For the same molecule, the TGI (A549 NSCLC) was over 100 µM, the TGI (NCI-H23 lung) was over 100 µM and the TGI (T-47D breast) was over 100 µM. For the same molecule, the TGI (SF-268 CNS) was over 100 µM, the TGI (CAKI-1 renal) was over 100 µM and the TGI (MDA-N) was over 100 µM. For the same molecule, the TGI (A498 renal) was over 100 µM, the TGI (MCF7 breast) was 48.1 µM and the TGI (SF-295 CNS) was over 100 µM. It also gave a TGI (OVCAR-4 ovarian) of over 100 µM and a TGI (OVCAR-8 ovarian) of over 100 µM.

Molecule `Cc1cc(C)c(NS(=O)c2ccc(Cl)cc2)c(C)c1` (stereo not drawn) has a TGI (SN12C renal) of over 100 µM, a TGI (HOP-62 NSCLC) of over 100 µM and a TGI (MALME-3M melanoma) of over 100 µM. For the same molecule, the TGI (HOP-92 NSCLC) was over 100 µM, the TGI (TK-10 renal) was over 100 µM and the TGI (KM12 colon) was over 100 µM. It also gave a TGI (NCI/ADR-RES ovarian) of over 100 µM, a TGI (HL-60(TB) leukemia) of over 100 µM and a TGI (OVCAR-5 ovarian) of over 100 µM. It also gave a TGI (HCT-116 colon) of over 100 µM, a TGI (EKVX NSCLC) of over 100 µM and a TGI (COLO 205 colon) of over 100 µM. For the same molecule, the TGI (RXF 393 renal) was over 100 µM, the TGI (NCI-H460 lung) was over 100 µM and the TGI (PC-3 prostate) was over 100 µM. The TGI (HCT-15 colon) was over 100 µM, the TGI (K-562 leukemia) was over 100 µM and the TGI (MOLT-4 leukemia) was over 100 µM. It also gave a TGI (HT29 colon) of over 100 µM, a TGI (M14 melanoma) of over 100 µM and a TGI (UACC-257 melanoma) of over 100 µM. The TGI (HCC-2998 colon) was over 100 µM, the TGI (SF-539 CNS) was over 100 µM and the TGI (SW-620 colon) was over 100 µM. It also gave a TGI (U251 CNS) of over 100 µM, a TGI (BT-549 breast) of over 100 µM and a TGI (786-0 renal) of over 100 µM. The TGI (SR leukemia) was over 100 µM, the TGI (OVCAR-3 ovarian) was over 100 µM and the TGI (RPMI-8226 leukemia) was over 100 µM. For the same molecule, the TGI (NCI-H226 lung) was over 100 µM, the TGI (ACHN renal) was over 100 µM and the TGI (CCRF-CEM leukemia) was over 100 µM. The TGI (UO-31 renal) was over 100 µM, the TGI (SK-MEL-28 melanoma) was over 100 µM and the TGI (DU-145 prostate) was over 100 µM. The TGI (SNB-19 CNS) was over 100 µM, the TGI (MDA-MB-435) was over 100 µM and the TGI (A549 NSCLC) was over 100 µM. For the same molecule, the TGI (NCI-H23 lung) was over 100 µM, the TGI (T-47D breast) was over 100 µM and the TGI (SF-268 CNS) was over 100 µM. For the same molecule, the TGI (MDA-N) was over 100 µM, the TGI (A498 renal) was over 100 µM and the TGI (MCF7 breast) was over 100 µM. It also gave a TGI (SF-295 CNS) of over 100 µM and a TGI (OVCAR-8 ovarian) of over 100 µM.
